Data on 20 compounds can be found in ChEMBL document CHEMBL1201862, “PubChem BioAssay data set” (2004).

For one experiment, the target named is T1, Streptokinase A (Streptococcus pyogenes serotype M1, UniProt P10520).
T1 sequence (P10520 whole entry): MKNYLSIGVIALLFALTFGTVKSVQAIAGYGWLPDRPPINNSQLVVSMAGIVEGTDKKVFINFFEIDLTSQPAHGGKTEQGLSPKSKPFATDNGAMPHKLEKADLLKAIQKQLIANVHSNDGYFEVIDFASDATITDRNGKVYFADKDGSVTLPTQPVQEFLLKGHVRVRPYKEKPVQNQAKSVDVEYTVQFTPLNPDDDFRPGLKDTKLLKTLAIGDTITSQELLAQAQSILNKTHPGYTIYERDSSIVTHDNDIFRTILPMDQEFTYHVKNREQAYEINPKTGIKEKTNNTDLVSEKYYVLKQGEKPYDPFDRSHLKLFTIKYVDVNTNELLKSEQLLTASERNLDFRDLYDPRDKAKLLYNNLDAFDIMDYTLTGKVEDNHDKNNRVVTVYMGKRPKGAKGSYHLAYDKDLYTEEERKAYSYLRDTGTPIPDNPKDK
In words: S. pyogenes streptokinase expression inhibitors, potency, dose response, plasminogen activation absorbance, OD405 (AID 1914).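 Note: secreted streptokinase activity via plasminogen activation per viability signal from cell pellet.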 The experiment is classed as functional, Streptococcus pyogenes M1 GAS.

The test system of another experiment is Streptococcus. Briefly: Group A Streptococcus viability loss, dose response, counter-screen for streptokinase expression inhibitor project, luminescence, BacTiterGlo (AID 1915).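 Note: potency for reduction of bacterial viability or growth.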 The class given is functional, organism-based. (In general: A counterscreen serves to expose hits that act by an unwanted route or on another target.)
In experiment [1] the test system is Streptococcus sp. 'group A'. Briefly: growth inhibition of control SK(-) GAS strain, dose response, counter-screen for streptokinase expression inhibitor project, luminescence, kanamycin, BacTiterGlo, confirmation (AID 1900). The experiment is classed as functional, organism-based.
In experiment [2] the target is T2, Rac GTPase-activating protein 1 (Homo sapiens, UniProt Q9H0H5).
T2 sequence (Q9H0H5 whole entry): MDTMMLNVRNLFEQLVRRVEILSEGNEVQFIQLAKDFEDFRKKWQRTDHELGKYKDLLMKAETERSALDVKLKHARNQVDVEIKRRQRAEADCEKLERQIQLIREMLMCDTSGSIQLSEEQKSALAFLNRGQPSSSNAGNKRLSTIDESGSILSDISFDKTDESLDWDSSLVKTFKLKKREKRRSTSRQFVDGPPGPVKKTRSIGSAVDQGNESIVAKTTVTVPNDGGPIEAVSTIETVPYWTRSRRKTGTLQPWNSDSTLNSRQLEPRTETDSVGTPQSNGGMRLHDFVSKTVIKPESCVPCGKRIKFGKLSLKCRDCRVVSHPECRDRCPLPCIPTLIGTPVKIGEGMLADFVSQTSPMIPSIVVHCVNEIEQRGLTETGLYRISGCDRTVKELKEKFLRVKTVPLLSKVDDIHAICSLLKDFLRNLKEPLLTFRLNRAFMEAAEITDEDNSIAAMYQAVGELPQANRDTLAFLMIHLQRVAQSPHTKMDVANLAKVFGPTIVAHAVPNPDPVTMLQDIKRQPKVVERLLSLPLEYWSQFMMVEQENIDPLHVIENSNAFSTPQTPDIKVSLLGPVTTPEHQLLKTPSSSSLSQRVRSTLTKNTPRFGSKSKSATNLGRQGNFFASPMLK
Briefly: MgcRacGAP GTPase-activating activity inhibitors, confirmation, biochemical, ADP Hunter fluorescence, primary and confirmatory (AID 624330). The experiment is classed as functional.

The next experiment addresses Cytochrome P450 2C9 (Homo sapiens, UniProt P11712).

Structures are written as SMILES. The source made the active and inactive calls. Cut-off read from the data, not from the text of the source, for most assays here: actives have a measured EC50 and inactives only a lower limit.

Chain of Cytochrome P450 2C9 (P11712 whole entry): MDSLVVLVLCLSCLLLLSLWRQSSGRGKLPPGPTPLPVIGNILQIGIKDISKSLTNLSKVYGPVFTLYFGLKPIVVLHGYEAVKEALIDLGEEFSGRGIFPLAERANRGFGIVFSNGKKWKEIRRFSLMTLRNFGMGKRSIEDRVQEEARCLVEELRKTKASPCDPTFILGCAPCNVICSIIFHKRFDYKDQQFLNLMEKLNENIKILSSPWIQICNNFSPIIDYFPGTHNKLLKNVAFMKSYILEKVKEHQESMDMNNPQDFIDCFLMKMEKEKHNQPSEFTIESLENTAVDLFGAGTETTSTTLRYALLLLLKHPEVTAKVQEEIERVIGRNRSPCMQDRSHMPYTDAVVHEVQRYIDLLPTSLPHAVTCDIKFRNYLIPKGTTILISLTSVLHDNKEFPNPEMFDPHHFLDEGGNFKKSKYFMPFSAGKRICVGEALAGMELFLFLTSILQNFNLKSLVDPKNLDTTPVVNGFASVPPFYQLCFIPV

Usually EC50 stands for the concentration giving half of the maximal effect. For the compound `O=C(c1cccs1)N1CCC(c2nc(O)c3nnn(Cc4ccccc4Cl)c3n2)CC1`, the EC50 at Streptokinase A is given as > 150 µM (not active); in the experiment with Streptococcus, > 50 µM (not active); in experiment [1], > 50 µM (not active).

The IC50 is the point on the concentration scale where inhibition reaches its midpoint. As for `CCOC(=O)c1[nH]c2ccccc2c1N=C(S)Nc1cccc(C)c1`, the half-inhibitory concentration (IC50) in experiment [2] is 115 µM (active).

Consider `Clc1cccc(Nc2ncnc3c2cnn3-c2ccccc2)c1`, for which the concentration for a half-maximal effect (EC50) at Streptokinase A was > 150 µM (not active); in the experiment with Streptococcus, 6.82 µM (active); in experiment [1], 7.78 µM (active).

In general, AC50 refers to the concentration at which the activity in the assay is half-maximal. For the compound `O=c1c(-c2ccc(F)cc2)nc2cnc(Oc3ccccc3)nc2n1Cc1cccs1`, the AC50 on Cytochrome P450 2C9 is 2.51 µM (inconclusive).

For `COc1cc(/C=C/C(=O)OCC(=O)NCC2CCCCC2)ccc1O`, the concentration for half-maximal inhibition (IC50) in experiment [2] is 39.3 µM (active).

For `Cc1ccccc1NC(=O)NCCCCc1ccccc1`, the concentration giving a half-maximal response (EC50) (on Streptokinase A; in the experiment on Streptococcus; in experiment [1]) was > 150 µM (not active) in each case.

As for `CC(C)CN(Cc1cc(=O)oc2cc3c(cc12)CCCC3)CC(C)C`, the EC50 at Streptokinase A was 5.67 µM (active); in the experiment with Streptococcus, 21.2 µM (active); in experiment [1] it was 6.12 µM (active).

`COCCN=C(S)NC1CC2CCCC(C1)N2Cc1cccs1` (stereo not drawn): the AC50 at Cytochrome P450 2C9 is 39.8 µM (inconclusive).

Turning to `COc1ccc(N=Nc2cc(-c3ccccc3)ccc2O)cc1`, the EC50 on Streptokinase A is 7.22 µM (active); with Streptococcus, > 150 µM (not active); in experiment [1], 34.7 µM (active).

Take `O=C(CCc1ccccc1)Nc1nnc(-c2ccc3c(c2)CCCC3)o1`: the figures for the EC50 (on Streptokinase A; with Streptococcus; in experiment [1]) were > 150 µM (not active), 26.2 µM (active) and 3.21 µM (active), respectively.

Regarding `COc1cc(/C=C2\C(=N)N3N=C(CC(=O)N4CCOCC4)SC3=NC2=O)ccc1O`, the IC50 in experiment [2] is 159 µM (active).

As for `O=C(NC(=S)Nc1ccc(-c2nc3ncccc3o2)cc1)c1ccccc1F`, the EC50 at Streptokinase A was > 150 µM (not active); in the experiment with Streptococcus, 21.3 µM (active); in experiment [1] it was 84.3 µM (active).

In the case of `CCn1c(=S)sc2c(O)nc(SCC(=O)Nc3cc(OC)ccc3OC)nc21`, the EC50 on Streptokinase A is 17.8 µM (inconclusive); in the experiment with Streptococcus, > 150 µM (not active); in experiment [1] it was 6.33 µM (active).

Consider `COc1ccc(O[C@H]2C=C[C@@H](c3ccccc3)O[C@H]2CO/N=C\C[C@@H]2C=C[C@H](OC(C)=O)[C@H](COC(C)=O)O2)cc1`, for which the half-maximal activity concentration (AC50) at Cytochrome P450 2C9 is 3.16 µM (inconclusive).

As to `O=C(CNC(=O)c1cccs1)NCC(=O)OCc1ccc(Cl)cc1`, the AC50 on Cytochrome P450 2C9 is 0.126 µM (inconclusive).

As to `CCOC(=O)c1oc2cc(O)cc(C)c2c1C`, in experiment [2], the concentration for half-maximal inhibition (IC50) was 21 µM (active).

With `Oc1ccc(Cc2ccccc2Cl)c(O)c1`, the IC50 in experiment [2] was 54.8 µM (active).

For `CCOC(=O)c1sc(/N=C/c2ccc(O)cc2O)cc1C`, the half-maximal inhibitory concentration (IC50) in experiment [2] was 22.4 µM (active).

For `C=C1S/C(=N/c2ccccc2Cl)N(C(=O)c2sc3ccccc3c2Cl)C12CCCCC2`, the EC50 on Streptokinase A is 19.8 µM (active); with Streptococcus, > 150 µM (not active); in experiment [1], 20.2 µM (active).

Take `CCOc1cc(/C=N\n2nnnc2N)ccc1O`: the half-maximal inhibitory concentration (IC50) in experiment [2] is 32.1 µM (active).
